Where a name gives a salt, the structure may show the parent alone.
test system: Acinetobacter baumannii ATCC17961; assay: Antimicrobial susceptibility testing: 90% growth inhibitory concentration (IC90) determination; format: cell-based; details: 90% growth inhibitory concentration against Acinetobacter baumannii ATCC17961, Iso-Sensitest broth, OD 600 nm over 16 h; read-out: ATCC 17961 IC90
In short: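 OD600 monitored each minute over 16 h at 35±2° C for bacteria (~5×10^5 CFU/mL final) in Iso-Sensitest medium with 10-point twofold compound series (e.g. 10-0.0195 μM final). Concentration giving 90% growth inhibition in log phase reported as IC90.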

Q: How did the IC90 turn out when `Cn1c(-c2cn(-c3ccc(N)cc3F)nc2C(F)(F)F)cnc1C(=O)Nc1ccc(C(=O)N2CCN(C(=O)CCC[N+](CCCN)(CCCN)CCCC(=O)O)CC2)c(Cl)c1` [Example 182, [4-[4-[4-[[5-[1-(4-amino-2-fluoro-phenyl)-3-(trifluoromethyl)pyrazol-4-yl]-1-methyl-imidazole-2-carbonyl]amino]-2-chloro-benzoyl]piperazin-1-yl]-4-oxo-butyl]-bis(3-aminopropyl)-(3-carboxypropyl)ammonium; 2,2,2-trifluoroacetate] was run?
A: 0.201 µM

same assay, conditions: Acinetobacter baumannii, ATCC17961, 16 h, 90% growth inhibitory concentration against Acinetobacter baumannii ATCC17961, Iso-Sensitest broth, OD 600 nm over 16 h; read-out: ATCC 17961 IC90

Q: `Cn1c(-c2cn(-c3cc4[nH]c(CO)cc4cn3)nc2C(F)(F)F)cnc1C(=O)Nc1ccc(C(=O)N2CCN(C(=O)[C@H]3CC[N@+](CC(=O)O)(CC4CNC4)CC3)CC2)c(Cl)c1` [Example 180, cis-2-[1-(azetidin-3-ylmethyl)-4-[4-[2-chloro-4-[[1-methyl-5-[1-(2-methylol-1H-pyrrolo[3,2-c]pyridin-6-yl)-3-(trifluoromethyl)pyrazol-4-yl]imidazole-2-carbonyl]amino]benzoyl]piperazine-1-carbonyl]piperidin-1-ium-1-yl]acetic acid. 1:1 2,2,2-trifluoroacetate] was tested. Which IC90 did it give?
A: 0.135 µM

Q: With `Cn1c(-c2cn(-c3ccc(N)cc3F)nc2C(F)(F)F)cnc1C(=O)Nc1ccc(C(=O)N2CCN(C(=O)C3CC[N+](CCCC(=O)O)(CC4CNC4)CC3)CC2)c(Cl)c1` (stereo not shown) [Example 181, 4-[4-[4-[4-[[5-[1-(4-amino-2-fluoro-phenyl)-3-(trifluoromethyl)pyrazol-4-yl]-1-methyl-imidazole-2-carbonyl]amino]-2-chloro-benzoyl]piperazine-1-carbonyl]-1-(azetidin-3-ylmethyl)piperidin-1-ium-1-yl]butanoic acid;formate] as the compound, how does the IC90 read?
A: 0.244 µM

Q: For `Cn1c(-c2cn(-c3ccc(N)cc3F)nc2C(F)(F)F)cnc1C(=O)Nc1ccc(C(=O)N2CCN(C(=O)CCC[N+](CCCN)(CCCN)CC(=O)O)CC2)c(Cl)c1` [Example 183, [4-[4-[4-[[5-[1-(4-amino-2-fluoro-phenyl)-3-(trifluoromethyl)pyrazol-4-yl]-1-methyl-imidazole-2-carbonyl]amino]-2-chloro-benzoyl]piperazin-1-yl]-4-oxo-butyl]-bis(3-aminopropyl)-(carboxymethyl)ammonium;formate], which IC90 is on record?
A: 0.108 µM

Q: For `Cn1c(-c2cn(-c3ccc4[nH]c(CN)cc4n3)nc2C(F)(F)F)cnc1C(=O)Nc1ccc(C(=O)N2CCN(C(=O)[C@H]3CC[N@+](CC(=O)O)(CC4CNC4)CC3)CC2)c(Cl)c1` [Example 184, cis-2-[4-[4-[4-[[5-[1-[2-(aminomethyl)-1H-pyrrolo[3,2-b]pyridin-5-yl]-3-(trifluoromethyl)pyrazol-4-yl]-1-methyl-imidazole-2-carbonyl]amino]-2-chloro-benzoyl]piperazine-1-carbonyl]-1-(azetidin-3-ylmethyl)piperidin-1-ium-1-yl]acetic acid;formate], which IC90 is on record?
A: 0.0642 µM

Q: How did the IC90 turn out when `COCCNc1ccc(-n2cc(-c3cnc(C(=O)Nc4ccc(C(=O)N5CCN(C(=O)[C@H]6CC[N@+](CC(=O)O)(CC7CNC7)CC6)CC5)c(Cl)c4)n3C)c(C(F)(F)F)n2)c(F)c1` [Example 185, cis-2-[1-(azetidin-3-ylmethyl)-4-[4-[2-chloro-4-[[5-[1-[2-fluoro-4-(2-methoxyethylamino)phenyl]-3-(trifluoromethyl)pyrazol-4-yl]-1-methyl-imidazole-2-carbonyl]amino]benzoyl]piperazine-1-carbonyl]piperidin-1-ium-1-yl]acetic acid. 1:1 2,2,2-trifluoroacetate] was run?
A: 0.196 µM

Q: How did the IC90 turn out when `Cn1c(-c2cn(-c3ccc(NCCCN)cc3F)nc2C(F)(F)F)cnc1C(=O)Nc1ccc(C(=O)N2CCN(C(=O)[C@H]3CC[N@+](CC(=O)O)(CC4CNC4)CC3)CC2)c(Cl)c1` [Example 186, cis-2-[4-[4-[4-[[5-[1-[4-(3-aminopropylamino)-2-fluoro-phenyl]-3-(trifluoromethyl)pyrazol-4-yl]-1-methyl-imidazole-2-carbonyl]amino]-2-chloro-benzoyl]piperazine-1-carbonyl]-1-(azetidin-3-ylmethyl)piperidin-1-ium-1-yl]acetic Acid.1:1 formate] was run?
A: 0.16 µM

Q: Which IC90 does the source give for `CN(C)CC[N@+]1(CC(=O)O)CC[C@H](C(=O)N2CCN(C(=O)c3ccc(NC(=O)c4ncc(-c5cn(-c6ccc(N)cc6F)nc5C(F)(F)F)n4C)cc3Cl)CC2)CC1` [Example 187, trans-2-[4-[4-[4-[[5-[1-(4-amino-2-fluoro-phenyl)-3-(trifluoromethyl)pyrazol-4-yl]-1-methyl-imidazole-2-carbonyl]amino]-2-chloro-benzoyl]piperazine-1-carbonyl]-1-[2-(dimethylamino)ethyl]piperidin-1-ium-1-yl]acetic acid;2,2,2-trifluoroacetate] here?
A: 0.745 µM

Q: Which IC90 does the source give for `CN(C)CC[N@+]1(CC(=O)O)CC[C@@H](C(=O)N2CCN(C(=O)c3ccc(NC(=O)c4ncc(-c5cn(-c6ccc(N)cc6F)nc5C(F)(F)F)n4C)cc3Cl)CC2)CC1` [Example 188, cis-2-[4-[4-[4-[[5-[1-(4-amino-2-fluoro-phenyl)-3-(trifluoromethyl)pyrazol-4-yl]-1-methyl-imidazole-2-carbonyl]amino]-2-chloro-benzoyl]piperazine-1-carbonyl]-1-[2-(dimethylamino)ethyl]piperidin-1-ium-1-yl]acetic acid;2,2,2-trifluoroacetate] here?
A: 0.54 µM

Q: For `Cn1c(-c2cn(-c3cc4[nH]c(CN)cc4cn3)nc2C(F)(F)F)cnc1C(=O)Nc1ccc(C(=O)N2CCN(C(=O)[C@H]3CC[N@+](CC(=O)O)(CC4CNC4)CC3)CC2)c(Cl)c1` [Example 189, cis-2-[4-[4-[4-[[5-[1-[2-(aminomethyl)-1H-pyrrolo[3,2-c]pyridin-6-yl]-3-(trifluoromethyl)pyrazol-4-yl]-1-methyl-imidazole-2-carbonyl]amino]-2-chloro-benzoyl]piperazine-1-carbonyl]-1-(azetidin-3-ylmethyl)piperidin-1-ium-1-yl]acetic acid;formic acid;formate], which IC90 is on record?
A: 0.0532 µM

Q: With `Cn1c(-c2cn(-c3ccc4c(ccn4CCN)n3)nc2C(F)(F)F)cnc1C(=O)Nc1ccc(C(=O)N2CCN(C(=O)[C@H]3CC[N@+](CC(=O)O)(CC4CNC4)CC3)CC2)c(Cl)c1` [Example 190, cis-2-[4-[4-[4-[[5-[1-[1-(2-aminoethyl)pyrrolo[3,2-b]pyridin-5-yl]-3-(trifluoromethyl)pyrazol-4-yl]-1-methyl-imidazole-2-carbonyl]amino]-2-chloro-benzoyl]piperazine-1-carbonyl]-1-(azetidin-3-ylmethyl)piperidin-1-ium-1-yl]acetic acid. 1:1 hydrogen chloride. 1:1 chloride] as the compound, how does the IC90 read?
A: 0.199 µM

Q: Which IC90 does the source give for `Cn1c(-c2cn(-c3cc4cc(CO)[nH]c4cn3)nc2C(F)(F)F)cnc1C(=O)Nc1ccc(C(=O)N2CCN(C(=O)[C@H]3CC[N@+](CC(=O)O)(CC4CNC4)CC3)CC2)c(Cl)c1` [Example 191, cis-2-[1-(azetidin-3-ylmethyl)-4-[4-[2-chloro-4-[[1-methyl-5-[1-(2-methylol-1H-pyrrolo[2,3-c]pyridin-5-yl)-3-(trifluoromethyl)pyrazol-4-yl]imidazole-2-carbonyl]amino]benzoyl]piperazine-1-carbonyl]piperidin-1-ium-1-yl]acetic acid. 1:1 2,2,2-trifluoroacetic acid] here?
A: 0.315 µM

Q: Which IC90 does the source give for `Cn1c(-c2cn(-c3cccc(N)n3)nc2C(F)(F)F)cnc1C(=O)Nc1ccc(C(=O)N2CCN(C(=O)[C@H]3CC[N@+](CC(=O)O)(CC4CNC4)CC3)CC2)c(Cl)c1` [Example 192, cis-2-[4-[4-[4-[[5-[1-(6-amino-2-pyridyl)-3-(trifluoromethyl)pyrazol-4-yl]-1-methyl-imidazole-2-carbonyl]amino]-2-chloro-benzoyl]piperazine-1-carbonyl]-1-(azetidin-3-ylmethyl)piperidin-1-ium-1-yl]acetic acid. 1:1 2,2,2-trifluoroacetate] here?
A: 0.265 µM

Q: For `Cn1c(-c2cn(-c3ccc(N)cc3F)nc2C(F)(F)F)cnc1C(=O)Nc1ccc(C(=O)N2CCN(C(=O)C3CC[N+](C)(CC(=O)O)CC3)CC2)c(Cl)c1` (stereo not shown) [Example 193, 2-[4-[4-[4-[[5-[1-(4-amino-2-fluoro-phenyl)-3-(trifluoromethyl)pyrazol-4-yl]-1-methyl-imidazole-2-carbonyl]amino]-2-chloro-benzoyl]piperazine-1-carbonyl]-1-methyl-piperidin-1-ium-1-yl]acetic acid;iodide], which IC90 is on record?
A: 0.371 µM

Q: `Cn1c(-c2cn(-c3cc4[nH]cc(CCO)c4cn3)nc2C(F)(F)F)cnc1C(=O)Nc1ccc(C(=O)N2CCN(C(=O)[C@H]3CC[N@+](CC(=O)O)(CC4CNC4)CC3)CC2)c(Cl)c1` [Example 194, cis-2-[1-(azetidin-3-ylmethyl)-4-[4-[2-chloro-4-[[5-[1-[3-(2-hydroxyethyl)-1H-pyrrolo[3,2-c]pyridin-6-yl]-3-(trifluoromethyl)pyrazol-4-yl]-1-methyl-imidazole-2-carbonyl]amino]benzoyl]piperazine-1-carbonyl]piperidin-1-ium-1-yl]acetic acid. 1:1 2,2,2-trifluoroacetate] was tested. Which IC90 did it give?
A: 0.168 µM

Q: Which IC90 does the source give for `Cn1c(-c2cn(-c3ccc(N)cc3F)nc2C(F)(F)F)cnc1C(=O)Nc1ccc(C(=O)N2CCN(C(=O)CCC[N+](C)(CC(=O)[O-])CC3CNC3)CC2)c(Cl)c1` (stereo not shown) [Example 195, 2-[[4-[4-[4-[[5-[1-(4-amino-2-fluoro-phenyl)-3-(trifluoromethyl)pyrazol-4-yl]-1-methyl-imidazole-2-carbonyl]amino]-2-chloro-benzoyl]piperazin-1-yl]-4-oxo-butyl]-(azetidin-3-ylmethyl)-methyl-ammonio]acetate] here?
A: 0.33 µM
